Experimental data: patent US8349791B2, “Polypeptides that bind membrane proteins” (The Trustees of the University of Pennsylvania, priority 2006, dated 2013)
Square brackets hold non-standard residues; d marks the D form. Ends that are not written are not given here.

How the values were obtained:
[1] = tested on: gel-filtered human platelets; assay: Platelet aggregation, turbidometric; assay type: cell-based; conditions: gel-filtered human platelets
Description: Platelet-rich plasma, prepared from human blood anti-coagulated with 0.1 volume of 0.13 M sodium citrate, was gel-filtered on Sepharose 2B (Amersham Biosciences, Piscataway, N.J.) using an elution buffer containing 137 mM NaCl, 2.7 mM KCl, 1 mM MgCl2, 5.6 mM glucose, 0.35 mg/ml bovine serum albumin, 3.3 mM NaH2PO4, and 4 mM HEPES (pH=7.4), as previously described. Jordan P et al. Nature 411, 909-917 (2001). Turbidometric measurements of platelet aggregation were performed in a Chrono-Log Lumi-Dual Aggregometer. Aliquots (0.4 ml) of the gel-filtered platelet suspension were supplemented with 200 μg/ml human fibrinogen (Enzyme Research Labs., South Bend, Ind.) and 1 mM CaCl2 (final concentrations) prior to adding platelet agonists. The polypeptide was added from a DMSO solution such that the final concentration of DMSO was no greater than 0.5%. All controls also had 0.5% DMSO in the buffer.

[2] = target: T1, full-length αIIbβ3 integrin (Homo sapiens, UniProt P08514); assay: Fluorescence anisotropy titration with full-length integrin; assay type: binding; conditions: N-octyl-β-D-glucopyranoside micelles, 64 nM labelled peptide, 25° C.
T1 construct: The full-length integrin aIIbβ3 protein in buffer
Description: The full-length integrin aIIbβ3 protein in buffer (7.9 mg/ml, 10 mM HEPES (pH=7.5), 60 mM N-octyl-β-D-glucopyranoside, 0.5 mM CaCl2, 0.02% NaN3) was prepared using the previously reported method. Weisel J W et al. J. Biol. Chem. 267, 16637-16643 (1992). Fluorescence polarization experiments were conducted on an ATF 105 spectrofluorometer (Aviv Biomedical, Inc., Lakewood, N.J.) using a 0.3 cm path length cuvette. Spectra were measured at 25° C. using 1.0 nm slit widths. Excitation at 408 nm was used for the coumarin-labeled polypeptide and the emission maximum at 433 nm was monitored. Anisotropy measurements were recorded upon titration of the integrin αIIbβ3 protein at varying concentrations into a polypeptide solution of 64 nM coum-anti-αIIb or coum-anti-αIIbmut. Data analysis was carried out according to previously described methods. See Yin H et al. J. Am. Chem. Soc. 127, 10191-96 (2005).

[3] = tested on: gel-filtered human platelets; conditions: cited from earlier work

Substance | platelet aggregation response [1] | other results
KKIFGVLTFLFGYILGALITGAVYWFVQLLAKK [anti-αIIb′] | highly active | 
RAWFALFLLIFLGFLLGVATLLVQY ([dR][dA][dW][dF][dA][dL][dF][dL][dL][dI][dF][dL]G[dF][dL][dL]G[dV][dA][dT][dL][dL][dV][dQ][dY]) [d-anti-αIIb] | aggregation of gel-filtered human platelets was induced by increasing concentrations | 
coum-anti-αIIb: 7-hydroxycoumarin-3-carboxamide-labeled anti-αIIb, label attached via a linker to the N-terminus (KKAYVMLLPFFIGLLLGLIFGGAFWGPARHLKK; not fully specified (N-terminus, C-terminus); also: label attached via an unspecified linker) |  | apparent Kdiss for αIIbβ3 [2]: 1.3±0.2×10^−5 mole fraction units
αIIb-TM: polypeptide spanning residues Trp968 to Lys989 of αIIb (WVLVGVLGGLLLLTILVLAMWK) |  | potency as activator of αIIbβ3 / inducer of platelet aggregation relative to anti-αIIb [3]: substantially less potent
